Test results published in patent US20230077362A1 (CORTEVA AGRISCIENCE LLC, priority 2019, published 2023).
Where two headings read alike, the source gives them in different places.

Legend:
Type in all cases: in vivo
[1] = system: Cabbage Looper (Trichoplusia ni) ("CL"); assay: Bioassay on Cabbage Looper (CL), Example D, procedure of Example A; details: read-out: CL % Control (or Mortality) Rating
Protocol: (§1) Example D: Bioassays on Cabbage Looper (Trichoplusia ni) (“CL”) and Diamondback Moth (Plutella xylostella) (“DBM”)
(§2) Certain molecules disclosed in this document were tested against CL and DBM (diamondback moth, Plutella xylostella) using procedures described above for BAW and CL (Example A). The results are reported as in the “CL & DBM Rating Table” at concentrations of 0.0005 and 0.00005 ppm, respectively, and are given Table D.

[2] = system: Cabbage Looper (Trichoplusia ni) ("CL"), second instar larvae; assay: Bioassay on cabbage looper (CL), 128-well diet tray assay; details: Trichoplusia ni
Summary of the method: (§3)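 Mortality (%) is scored well by well after five to seven days at 25° C. on a 14:10 light:dark regime. The value given is the mean of eight wells.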

[3] = system: Green Peach Aphid ("GPA") (Myzus persicae), wingless adult and nymph stages; assay: Bioassay on green peach aphid (GPA), foliar spray on infested cabbage seedlings; details: Myzus persicae, foliar, 72 h
Summary of the method: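 Values are corrected % control, 100*(X−Y)/X, from live aphid counts per plant under a microscope, treated versus solvent-check plants. Four infested seedlings (20-50 GPA each) per treatment were sprayed to runoff and kept three days near 25° C at ambient RH.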

[4] = system: Beet Armyworm (Spodoptera exigua) ("BAW"), second instar larvae; assay: Bioassay on beet armyworm (BAW), 128-well diet tray assay; details: Spodoptera exigua
Summary of the method: as §3

[5] = system: Diamondback Moth (Plutella xylostella) ("DBM"); assay: Bioassay on Diamondback Moth (DBM), Example D, procedure of Example A; details: 0.00005 ppm, read-out: DBM % Control (or Mortality) Rating
Protocol: as §1, §2

[6] = system: Yellow Fever Mosquito "YFM" (Aedes aegypti), about 1 day-old larvae; assay: Bioassay on yellow fever mosquito (YFM), 96-well plate larval assay; details: for YFM (Biological Results, rating): Yellow Fever Mosquito (Aedes aegypti) larvae, scored on mortality after 3 days, C = Not Tested; for YFM rating: Table ABC, species YFM, mortality scored after 3 days, C = not tested, D = no activity noticed
Protocol: Example C: Bioassays on Yellow Fever Mosquito “YFM” (Aedes aegypti)
Certain molecules disclosed in this document were tested against YFM using procedures described in the following paragraph. In the reporting of the results, the “YFM Rating Table” was used (See Table Section).
Master plates containing 400 μg of a molecule dissolved in 100 μL of dimethyl sulfoxide (DMSO) (equivalent to a 4000 ppm solution) are used. A master plate of assembled molecules contains 15 μL per well. To this plate, 135 μL of a 90:10 water:acetone mixture is added to each well. A robot (Biomek® NXP Laboratory Automation Workstation) is programmed to dispense 15 μL aspirations from the master plate into an empty 96-well shallow plate (“daughter” plate). There are 6 reps (“daughter” plates) created per master. The created daughter plates are then immediately infested with YFM larvae.
The day before plates are to be treated, mosquito eggs are placed in Millipore water containing liver powder to begin hatching (4 g. into 400 mL). After the daughter plates are created using the robot, they are infested with 220 μL of the liver powder/larval mosquito mixture (about 1 day-old larvae). After plates are infested with mosquito larvae, a non-evaporative lid is used to cover the plate to reduce drying. Plates are held at room temperature for 3 days prior to grading. After 3 days, each well is observed and scored based on mortality.

[7] = read-out: CL (Biological Results, rating)
[8] = read-out: GPA (Biological Results, rating)
[9] = read-out: BAW (Biological Results, rating)

## Cc1ccc(C)c(N2C(=O)CS/C2=N\C(=O)Nc2ccc(-c3ncn(-c4ccc(OC(F)(F)F)cc4)n3)cc2)c1 [Compound C2]
[1]
  mortality at 0.0005 ppm: 0 to 15%
[2]; [7]
  pest or weed control at 50 µg/cm2: 50 to 100%
[3]; [8]
  pest or weed control at 200 µg/mL: 0 to 80%
[4]; [9]
  pest or weed control at 50 µg/cm2: 50 to 100%
[5]
  mortality at 5e-05 ppm: 0 to 15%

## Cc1ccc(C(F)(F)F)c(N2C(=O)CS/C2=N\C(=O)NCCc2ccc(-c3ncn(-c4ccc(OC(F)(F)F)cc4)n3)cc2)c1 [Compound H1]
[1]
  mortality at 0.0005 ppm: 16 to 50%
[2]; [7]
  pest or weed control at 50 µg/cm2: 50 to 100%
[6]
  YFM (Biological Results, rating): A (80-100)
[3]; [8]
  pest or weed control at 200 µg/mL: 0 to 80%
[4]; [9]
  pest or weed control at 50 µg/cm2: 50 to 100%
[5]
  mortality at 5e-05 ppm: 16 to 50%

## Cc1ccc(C(F)(F)F)c(N2C(=O)CS/C2=N\C(=O)NCC(F)c2ccc(-c3ncn(-c4ccc(OC(F)(F)F)cc4)n3)cc2)c1 (stereo not drawn) [Compound H2]
[1]
  mortality at 0.0005 ppm: 51 to 100%
[2]; [7]
  pest or weed control at 50 µg/cm2: 50 to 100%
[3]; [8]
  pest or weed control at 200 µg/mL: 80 to 100%
[4]; [9]
  pest or weed control at 50 µg/cm2: 50 to 100%
[5]
  mortality at 5e-05 ppm: 51 to 100%

## Cc1ccc(C(F)(F)F)c(N2C(=O)CS/C2=N\C(=O)N[C@H](C)Cc2ccc(-c3ncn(-c4ccc(OC(F)(F)F)cc4)n3)cc2)c1 [Compound H3]
[2]; [7]
  pest or weed control at 50 µg/cm2: 50 to 100%
[6]
  YFM (Biological Results, rating): A (80-100)
[3]; [8]
  pest or weed control at 200 µg/mL: 80 to 100%
[4]; [9]
  pest or weed control at 50 µg/cm2: 50 to 100%

## O=C(/N=C1\SCC(=O)N1c1ccccc1C(F)F)NCCc1ccc(-c2ncn(-c3ccc(OC(F)(F)F)cc3)n2)cc1 [Compound H11]
[2]; [7]
  pest or weed control at 50 µg/cm2: 50 to 100%
[6]
  YFM (Biological Results, rating): A (80-100)
[3]; [8]
  pest or weed control at 200 µg/mL: 0 to 80%
[4]; [9]
  pest or weed control at 50 µg/cm2: 50 to 100%

## Cc1ccc(C(F)(F)F)c(N2C(=O)CS/C2=N\C(=O)Nc2ccc(-c3ncn(-c4ccc(OC(F)(F)F)cc4)n3)cc2)c1 [Compound H20]
[1]
  mortality at 0.0005 ppm: 16 to 50%
[2]; [7]
  pest or weed control at 50 µg/cm2: 50 to 100%
[3]; [8]
  pest or weed control at 200 µg/mL: 0 to 80%
[4]; [9]
  pest or weed control at 50 µg/cm2: 50 to 100%
[5]
  mortality at 5e-05 ppm: 51 to 100%

## CC(F)(F)c1ccccc1N1C(=O)CS/C1=N\C(=O)NCCc1ccc(-c2ncn(-c3ccc(OC(F)(F)F)cc3)n2)cc1 [Compound H21]
[2]; [7]
  pest or weed control at 50 µg/cm2: 50 to 100%
[6]
  YFM (Biological Results, rating): A (80-100)
[3]; [8]
  pest or weed control at 200 µg/mL: 0 to 80%
[4]; [9]
  pest or weed control at 50 µg/cm2: 50 to 100%

## Cc1cc(-c2cn(-c3ccc(C(F)(F)F)cn3)cn2)ccc1NC(=O)/N=C1\SCC(=O)N1c1cc(N(C)C)ccc1C(C)C [Compound J510, (Z)-1-(3-(5-(Dimethylamino)-2-isopropylphenyl)-4-oxothiazolidin-2-ylidene)-3-(2-methyl-4-(1-(5-(trifluoromethyl)pyridin-2-yl)-1H-imidazol-4-yl)phenyl)urea]
[2]; read-out: CL rating
  pest or weed control at 50 µg/cm2: 50 to 100%
[6]
  YFM rating: A (80-100)
[3]; read-out: GPA rating
  pest or weed control at 200 µg/mL: 0 to 80%
[4]; read-out: BAW rating
  pest or weed control at 50 µg/cm2: 50 to 100%

## Cc1cc(-c2ncn(-c3ccc(OC(F)(F)F)cc3)n2)ccc1NC(=O)/N=C1\SCC(=O)N1c1ccccc1COCC(F)(F)F [Compound J653, (Z)-1-(2-Methyl-4-(1-(4-(trifluoromethoxy)phenyl)-1H-1,2,4-triazol-3-yl)phenyl)-3-(4-oxo-3-(2-((2,2,2-trifluoroethoxy)methyl)phenyl)thiazolidin-2-ylidene)urea]
[2]; read-out: CL rating
  pest or weed control at 50 µg/cm2: 50 to 100%
[6]
  YFM rating: A (80-100)
[3]; read-out: GPA rating
  pest or weed control at 200 µg/mL: 0 to 80%
[4]; read-out: BAW rating
  pest or weed control at 50 µg/cm2: 50 to 100%

## O=C(/N=C1\SCC(=O)N1c1cc(Cl)ccc1COCc1ccccc1)Nc1ccc(-c2ncn(-c3ccc(OC(F)(F)F)cc3)n2)cc1F [Compound J719, (Z)-1-(3-(2-((Benzyloxy)methyl)-5-chlorophenyl)-4-oxothiazolidin-2-ylidene)-3-(2-fluoro-4-(1-(4-(trifluoromethoxy)phenyl)-1H-1,2,4-triazol-3-yl)phenyl)urea]
[2]; read-out: CL rating
  pest or weed control at 50 µg/cm2: 50 to 100%
[6]
  YFM rating: A (80-100)
[3]; read-out: GPA rating
  pest or weed control at 200 µg/mL: 0 to 80%
[4]; read-out: BAW rating
  pest or weed control at 50 µg/cm2: 50 to 100%

## O=C(/N=C1\SCC(=O)N1c1ccccc1COCc1ccccc1)Nc1ccc(-c2ncn(-c3ccc(OC(F)(F)F)cc3)n2)cc1F [Compound J742, (Z)-1-(3-(2-((Benzyloxy)methyl)phenyl)-4-oxothiazolidin-2-ylidene)-3-(2-fluoro-4-(1-(4-(trifluoromethoxy)phenyl)-1H-1,2,4-triazol-3-yl)phenyl)urea]
[2]; read-out: CL rating
  pest or weed control at 50 µg/cm2: 50 to 100%
[6]
  YFM rating: A (80-100)
[3]; read-out: GPA rating
  pest or weed control at 200 µg/mL: 0 to 80%
[4]; read-out: BAW rating
  pest or weed control at 50 µg/cm2: 50 to 100%

## Cc1ccc(COCc2ccccc2)c(N2C(=O)CS/C2=N\C(=O)Nc2ccc(-c3ncn(-c4ccc(C(F)(F)F)cc4)n3)cc2F)c1 [Compound J747, (Z)-1-(3-(2-((Benzyloxy)methyl)-5-methylphenyl)-4-oxothiazolidin-2-ylidene)-3-(2-fluoro-4-(1-(4-(trifluoromethyl)phenyl)-1H-1,2,4-triazol-3-yl)phenyl)urea]
[2]; read-out: CL rating
  pest or weed control at 50 µg/cm2: 50 to 100%
[6]
  YFM rating: A (80-100)
[3]; read-out: GPA rating
  pest or weed control at 200 µg/mL: 0 to 80%
[4]; read-out: BAW rating
  pest or weed control at 50 µg/cm2: 50 to 100%

## Cc1ccc(COCC(F)(F)F)c(N2C(=O)CS/C2=N\C(=O)Nc2ccc(-c3ncn(-c4ccn(CC(F)(F)F)c(=O)c4)n3)cc2F)c1 [Compound J751, (Z)-1-(2-Fluoro-4-(1-(2-oxo-1-(2,2,2-trifluoroethyl)-1,2-dihydropyridin-4-yl)-1H-1,2,4-triazol-3-yl)phenyl)-3-(3-(5-methyl-2-((2,2,2-trifluoroethoxy)methyl)phenyl)-4-oxothiazolidin-2-ylidene)urea]
[2]; read-out: CL rating
  pest or weed control at 50 µg/cm2: 50 to 100%
[6]
  YFM rating: A (80-100)
[3]; read-out: GPA rating
  pest or weed control at 200 µg/mL: 0 to 80%
[4]; read-out: BAW rating
  pest or weed control at 50 µg/cm2: 50 to 100%
